From the NIST ThermoML archive (doi:10.1021/acs.jced.5b00682)
Numbers after ± are expanded uncertainties.

Legend:
[1] = xn = mol fraction of the nth substance listed; conditions: 101 kPa, Liquid, Frequency=0.001 MHz, Alternating current cell with electrodes
[2] = 101.33 kPa, Liquid, Alternating current cell with electrodes

## [Cl-].[Cs+] [cesium chloride] + [Cl-].[Li+]
[1]; 593.5 K, x1 = 0.42
  electrical conductivity: 33.3 ± 0.7 S/m
[1]; 598.5 K, x1 = 0.42
  electrical conductivity: 35.5 ± 1.2 S/m
[1]; 603 K, x1 = 0.425
  electrical conductivity: 33.3 ± 0.7 S/m
[1]; 603.5 K, x1 = 0.42
  electrical conductivity: 37.9 ± 1.2 S/m
[1]; 608 K, x1 = 0.425
  electrical conductivity: 35.5 ± 1.1 S/m
[1]; 610.5 K, x1 = 0.42
  electrical conductivity: 41.1 ± 1.2 S/m
[1]; 613 K, x1 = 0.425
  electrical conductivity: 37.5 ± 1.1 S/m
[1]; 613.5 K, x1 = 0.42
  electrical conductivity: 42.4 ± 1.3 S/m
[1]; 618 K, x1 = 0.425
  electrical conductivity: 39.8 ± 1.2 S/m
[1]; 623 K, x1 = 0.425
  electrical conductivity: 42 ± 1.2 S/m
[1]; 623.5 K, x1 = 0.42
  electrical conductivity: 47.1 ± 1.3 S/m
[1]; 628 K, x1 = 0.425
  electrical conductivity: 44.2 ± 1.3 S/m
[1]; 628.5 K, x1 = 0.42
  electrical conductivity: 49.5 ± 1.4 S/m
[1]; 629 K, x1 = 0.42
  electrical conductivity: 52.4 ± 1.5 S/m
[1]; 633 K, x1 = 0.425
  electrical conductivity: 46.5 ± 1.3 S/m
[1]; 633.5 K, x1 = 0.42
  electrical conductivity: 52 ± 1.5 S/m
[1]; 638 K, x1 = 0.42
  electrical conductivity: 57.1 ± 1.5 S/m
[1]; 638 K, x1 = 0.425
  electrical conductivity: 48.8 ± 1.4 S/m
[1]; 643 K, x1 = 0.425
  electrical conductivity: 51.2 ± 1.4 S/m
[1]; 643.5 K, x1 = 0.42
  electrical conductivity: 57 ± 1.4 S/m
[1]; 648 K, x1 = 0.425
  electrical conductivity: 53.4 ± 1.4 S/m
[1]; 650 K, x1 = 0.42
  electrical conductivity: 62.1 ± 1.6 S/m
[1]; 650.5 K, x1 = 0.42
  electrical conductivity: 60.5 ± 1.6 S/m
[1]; 653 K, x1 = 0.425
  electrical conductivity: 55.9 ± 1.5 S/m
[1]; 653.5 K, x1 = 0.42
  electrical conductivity: 62 ± 2.1 S/m
[1]; 658 K, x1 = 0.42
  electrical conductivity: 66.5 ± 1.7 S/m
[1]; 658 K, x1 = 0.425
  electrical conductivity: 58.2 ± 1.5 S/m
[1]; 663 K, x1 = 0.425
  electrical conductivity: 60.6 ± 1.5 S/m
[1]; 663.5 K, x1 = 0.42
  electrical conductivity: 67.1 ± 1.6 S/m
[1]; 668 K, x1 = 0.425
  electrical conductivity: 63 ± 1.6 S/m
[1]; 670 K, x1 = 0.42
  electrical conductivity: 72.1 ± 1.8 S/m
[1]; 670.5 K, x1 = 0.42
  electrical conductivity: 70.6 ± 1.7 S/m
[1]; 673 K, x1 = 0.425
  electrical conductivity: 65.4 ± 1.6 S/m
[1]; 673.5 K, x1 = 0.42
  electrical conductivity: 72.1 ± 2.2 S/m
[1]; 678 K, x1 = 0.42
  electrical conductivity: 76.6 ± 1.8 S/m
[1]; 678 K, x1 = 0.425
  electrical conductivity: 67.8 ± 1.7 S/m
[1]; 683 K, x1 = 0.425
  electrical conductivity: 70.1 ± 1.7 S/m
[1]; 683.5 K, x1 = 0.42
  electrical conductivity: 77.2 ± 1.8 S/m
[1]; 688 K, x1 = 0.425
  electrical conductivity: 72.5 ± 1.7 S/m
[1]; 690 K, x1 = 0.42
  electrical conductivity: 82.2 ± 2 S/m
[1]; 690.5 K, x1 = 0.42
  electrical conductivity: 80.6 ± 1.9 S/m
[1]; 693 K, x1 = 0.425
  electrical conductivity: 74.9 ± 1.8 S/m
[1]; 693.5 K, x1 = 0.42
  electrical conductivity: 82.2 ± 2.4 S/m
[1]; 698 K, x1 = 0.42
  electrical conductivity: 86.9 ± 2 S/m
[1]; 698 K, x1 = 0.425
  electrical conductivity: 77.1 ± 1.8 S/m
[1]; 703 K, x1 = 0.425
  electrical conductivity: 79.6 ± 1.8 S/m
[1]; 703.5 K, x1 = 0.42
  electrical conductivity: 87 ± 1.9 S/m
[1]; 708 K, x1 = 0.425
  electrical conductivity: 81.7 ± 1.9 S/m
[1]; 710 K, x1 = 0.42
  electrical conductivity: 91.8 ± 2.3 S/m
[1]; 710.5 K, x1 = 0.42
  electrical conductivity: 90.2 ± 2.3 S/m
[1]; 713 K, x1 = 0.425
  electrical conductivity: 84 ± 1.9 S/m
[1]; 718 K, x1 = 0.42
  electrical conductivity: 97.1 ± 1.9 S/m
[1]; 718 K, x1 = 0.425
  electrical conductivity: 86.3 ± 1.9 S/m
[1]; 723 K, x1 = 0.425
  electrical conductivity: 88.4 ± 1.8 S/m

## O=[N+]([O-])[O-].[K+] [potassium nitrate]
[2]; 618.5 K
  electrical conductivity: 64.7 ± 1.3 S/m
[2]; 623.5 K
  electrical conductivity: 66.2 ± 1.3 S/m
[2]; 624.6 K
  electrical conductivity: 66.5 ± 1.3 S/m
[2]; 626.5 K
  electrical conductivity: 67.1 ± 1.3 S/m
[2]; 627.9 K
  electrical conductivity: 67.5 ± 1.4 S/m
[2]; 628.4 K
  electrical conductivity: 67.7 ± 1.4 S/m
[2]; 628.5 K
  electrical conductivity: 67.7 ± 1.4 S/m
[2]; 630.5 K
  electrical conductivity: 68.3 ± 1.4 S/m
[2]; 631.5 K
  electrical conductivity: 68.5 ± 1.4 S/m
[2]; 633.5 K
  electrical conductivity: 69.1 ± 1.4 S/m
[2]; 633.6 K
  electrical conductivity: 69.1 ± 1.4 S/m
[2]; 633.8 K
  electrical conductivity: 69.2 ± 1.4 S/m
[2]; 636.7 K
  electrical conductivity: 70.1 ± 1.4 S/m
[2]; 638.5 K
  electrical conductivity: 70.6 ± 1.4 S/m
[2]; 648.5 K
  electrical conductivity: 73.4 ± 1.5 S/m
[2]; 649.6 K
  electrical conductivity: 73.7 ± 1.5 S/m
[2]; 653.5 K
  electrical conductivity: 74.9 ± 1.5 S/m
[2]; 658.5 K
  electrical conductivity: 76.3 ± 1.5 S/m
[2]; 659.6 K
  electrical conductivity: 76.6 ± 1.5 S/m
[2]; 663.5 K
  electrical conductivity: 77.7 ± 1.6 S/m
[2]; 665 K
  electrical conductivity: 78.2 ± 1.6 S/m

## O=[N+]([O-])[O-].[Na+] [sodium nitrate]
[2]; 583 K
  electrical conductivity: 98.7 ± 2 S/m
[2]; 593 K
  electrical conductivity: 103 ± 2.1 S/m
[2]; 603 K
  electrical conductivity: 108 ± 2.2 S/m
[2]; 613 K
  electrical conductivity: 112 ± 2.2 S/m
[2]; 623 K
  electrical conductivity: 116 ± 2.3 S/m
[2]; 633 K
  electrical conductivity: 121 ± 2.4 S/m
[2]; 643 K
  electrical conductivity: 125 ± 2.5 S/m
